Five molecules from ChEMBL document CHEMBL1201862, “PubChem BioAssay data set” (2004) can be followed below.

Structures are written as SMILES.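 In this assay, cells in 96-well plates receive the compound at five concentrations for 48 hours. Endpoints are linearly interpolated between the surrounding concentrations. GI50 is the concentration that inhibits growth by half.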 Calls of active or inactive are those of the source. No stated cut-off is given here; in the data, active = GI50 up to about 1.1 µM and inactive = higher.

Test systems include SF-268; UACC-62; TK-10; COLO 205; Hs-578T; NCI-H460; A549; SN12C; SF-295; HCT-15; CAKI-1; OVCAR-4; SK-MEL-2; OVCAR-5; 786-0; MDA-MB-231; SF-539; NCI-H226; Malme-3M.
Common to all, as to assay: NCI-60 cell line screen, 48 h

In the case of `CCC(C)c1cnc(CC(C)C)c(=O)[nH]1` (stereo not given), the GI50 in the experiment on SF-268, in the experiment on UACC-62, in the experiment on TK-10, in the experiment on COLO 205, with Hs-578T and in the experiment on NCI-H460 was > 100 µM (inactive) each time. Also, the GI50 was > 100 µM (inactive) in the experiment with A549; > 100 µM (inactive) with SN12C; > 100 µM (inactive) with SF-295; > 100 µM with HCT-15; > 100 µM (inactive) with CAKI-1; > 100 µM (inactive) in the experiment on OVCAR-4. The GI50 with SK-MEL-2, in the experiment with OVCAR-5, in the experiment with 786-0 and with MDA-MB-231 was > 100 µM (inactive) throughout.

In the case of `Cc1c(C(=O)OCc2ccccc2)[n+]([O-])c2cc(Cl)c(Cl)cc2[n+]1[O-]`, the GI50 is 17.5 µM (inactive) in the experiment with SF-268; 14.9 µM (inactive) in the experiment on UACC-62; 18.7 µM (inactive) in the experiment with TK-10; 18.2 µM (inactive) in the experiment on COLO 205; 19.2 µM (inactive) with Hs-578T; 22.5 µM (inactive) in the experiment with SF-539. The GI50 was 14.2 µM (inactive) in the experiment on NCI-H460; 11.1 µM (inactive) with A549; 18.1 µM (inactive) in the experiment with SN12C; 5.77 µM (inactive) in the experiment on NCI-H226; 16.8 µM (inactive) in the experiment on SF-295; 16.1 µM in the experiment on HCT-15. Moreover, the GI50 in the experiment with CAKI-1 is 13 µM (inactive); in the experiment on OVCAR-4 it was 14 µM (inactive); with SK-MEL-2 it was 17.4 µM (inactive); with OVCAR-5 it was 21.3 µM (inactive); in the experiment on 786-0, 16 µM (inactive); with MDA-MB-231, 19.5 µM (inactive).

Take `CC(C)SC(NC(=O)C1C(C)(C)CCC1(C)C)C(=O)O` (stereo not given): the GI50 in the experiment on SF-268, with UACC-62, with TK-10, in the experiment with COLO 205, with Hs-578T and in the experiment on SF-539 was > 100 µM (inactive) throughout. The GI50 is > 100 µM (inactive) in the experiment on NCI-H460; > 100 µM (inactive) in the experiment on A549; > 100 µM (inactive) with SN12C; > 100 µM (inactive) with NCI-H226; > 100 µM with HCT-15; > 100 µM (inactive) with SK-MEL-2. Besides, the GI50 in the experiment with OVCAR-5, with 786-0 and in the experiment on MDA-MB-231 was > 100 µM (inactive) in each case.

Take `O=C(N/N=C/c1ccc(Br)cc1)N/N=C/c1ccc(Br)cc1`: the GI50 in the experiment on SF-268 is 10.4 µM (inactive); in the experiment with UACC-62 it was 12.6 µM (inactive); with TK-10, 2.44 µM (inactive); in the experiment with COLO 205, 9.44 µM (inactive); in the experiment on Hs-578T, 3.78 µM (inactive); in the experiment with Malme-3M it was 3.05 µM (inactive). Further, the GI50 in the experiment with A549 is 16 µM (inactive); in the experiment on SN12C, 3.52 µM (inactive); in the experiment on NCI-H226, 7.43 µM (inactive); in the experiment with SF-295 it was 6.19 µM (inactive); in the experiment with HCT-15 it was 16.8 µM; in the experiment with CAKI-1 it was 4.66 µM (inactive). The GI50 is 2.37 µM (inactive) in the experiment on OVCAR-4; 75.5 µM (inactive) in the experiment with SK-MEL-2; 35.3 µM (inactive) with OVCAR-5; 3.92 µM (inactive) in the experiment on 786-0; 3.38 µM (inactive) in the experiment on MDA-MB-231.

Regarding `CCOC(=O)c1c(N)sc2c1C(C(=O)OCC)CC2` (stereo not given), the GI50 in the experiment on UACC-62 was 91.4 µM (inactive); in the experiment with TK-10 it was > 100 µM (inactive); in the experiment on COLO 205, > 100 µM (inactive); with Hs-578T it was 93.8 µM (inactive); in the experiment with Malme-3M it was 74.1 µM (inactive); with NCI-H460, 62.1 µM (inactive). Besides, the GI50 in the experiment on A549 is > 100 µM (inactive); with SN12C it was 40.5 µM (inactive); in the experiment with NCI-H226 it was > 100 µM (inactive); in the experiment with HCT-15, > 100 µM; with SK-MEL-2, > 100 µM (inactive); with OVCAR-5, > 100 µM (inactive). The figures for the GI50 with 786-0 and with MDA-MB-231 were > 100 µM (inactive) and 76.7 µM (inactive), respectively.
